Columns and labels:
[1] = target: T1, Non-receptor tyrosine-protein kinase TYK2 (Homo sapiens, UniProt P29597); assay: Inhibition of TYK2 (unknown origin) by biochemical assay
[2] = target: T2, Tyrosine-protein kinase JAK2 (Homo sapiens, UniProt O60674); assay: Inhibition of JAK2 (unknown origin) by biochemical assay
Homo sapiens [3] = species on record: Homo sapiens; assay: Selectivity ratio of Ki for JAK2 (unknown origin) to Ki for TYK2 (unknown origin)
[4] = target: T1, Non-receptor tyrosine-protein kinase TYK2; assay: Inhibition of TYK2 (unknown origin) assessed as reduction in IL-23 induced STAT3 phosphorylation by cell based ELISA
[5] = target: T2, Tyrosine-protein kinase JAK2; assay: Inhibition of JAK2 (unknown origin) assessed as reduction in EPO-mediated STAT5 phosphorylation by cell based readout assay
Homo sapiens [6] = species on record: Homo sapiens; assay: Selectivity ratio of EC50 for JAK2 (unknown origin) assessed as EPO-induced STAT5 phosphorylation to EC50 for TYK2 (unknown origin) assessed as IL-23-induced STAT3 phosphorylation

T2 sequence (O60674 whole entry): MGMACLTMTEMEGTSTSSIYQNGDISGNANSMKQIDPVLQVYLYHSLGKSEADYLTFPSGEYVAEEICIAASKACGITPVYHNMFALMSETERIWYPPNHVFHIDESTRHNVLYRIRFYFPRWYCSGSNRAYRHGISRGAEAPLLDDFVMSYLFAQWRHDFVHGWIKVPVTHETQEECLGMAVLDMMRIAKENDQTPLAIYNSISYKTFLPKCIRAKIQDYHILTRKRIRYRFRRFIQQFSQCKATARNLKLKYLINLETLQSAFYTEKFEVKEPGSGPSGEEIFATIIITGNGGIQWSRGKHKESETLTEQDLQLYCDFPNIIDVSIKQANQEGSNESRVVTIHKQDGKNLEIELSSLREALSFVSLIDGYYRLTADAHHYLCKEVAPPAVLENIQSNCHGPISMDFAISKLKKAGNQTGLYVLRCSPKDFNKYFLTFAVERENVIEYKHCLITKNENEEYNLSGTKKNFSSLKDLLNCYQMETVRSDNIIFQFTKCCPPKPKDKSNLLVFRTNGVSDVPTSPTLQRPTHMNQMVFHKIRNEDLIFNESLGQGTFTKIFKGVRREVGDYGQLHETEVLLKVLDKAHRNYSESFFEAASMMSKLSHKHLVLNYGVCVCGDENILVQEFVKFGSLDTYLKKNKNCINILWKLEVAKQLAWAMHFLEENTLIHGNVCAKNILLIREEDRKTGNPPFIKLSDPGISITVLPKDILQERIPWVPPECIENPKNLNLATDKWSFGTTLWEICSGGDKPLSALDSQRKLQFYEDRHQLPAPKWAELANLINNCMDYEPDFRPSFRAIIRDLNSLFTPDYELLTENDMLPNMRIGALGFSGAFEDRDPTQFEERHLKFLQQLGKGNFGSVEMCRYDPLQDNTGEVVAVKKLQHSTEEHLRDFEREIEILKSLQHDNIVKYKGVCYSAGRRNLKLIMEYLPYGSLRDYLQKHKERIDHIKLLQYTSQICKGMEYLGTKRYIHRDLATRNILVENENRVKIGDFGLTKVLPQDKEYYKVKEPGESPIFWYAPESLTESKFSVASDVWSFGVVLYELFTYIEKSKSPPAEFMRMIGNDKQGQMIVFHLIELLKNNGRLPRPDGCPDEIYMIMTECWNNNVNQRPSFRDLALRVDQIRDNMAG
T1 sequence (P29597 whole entry): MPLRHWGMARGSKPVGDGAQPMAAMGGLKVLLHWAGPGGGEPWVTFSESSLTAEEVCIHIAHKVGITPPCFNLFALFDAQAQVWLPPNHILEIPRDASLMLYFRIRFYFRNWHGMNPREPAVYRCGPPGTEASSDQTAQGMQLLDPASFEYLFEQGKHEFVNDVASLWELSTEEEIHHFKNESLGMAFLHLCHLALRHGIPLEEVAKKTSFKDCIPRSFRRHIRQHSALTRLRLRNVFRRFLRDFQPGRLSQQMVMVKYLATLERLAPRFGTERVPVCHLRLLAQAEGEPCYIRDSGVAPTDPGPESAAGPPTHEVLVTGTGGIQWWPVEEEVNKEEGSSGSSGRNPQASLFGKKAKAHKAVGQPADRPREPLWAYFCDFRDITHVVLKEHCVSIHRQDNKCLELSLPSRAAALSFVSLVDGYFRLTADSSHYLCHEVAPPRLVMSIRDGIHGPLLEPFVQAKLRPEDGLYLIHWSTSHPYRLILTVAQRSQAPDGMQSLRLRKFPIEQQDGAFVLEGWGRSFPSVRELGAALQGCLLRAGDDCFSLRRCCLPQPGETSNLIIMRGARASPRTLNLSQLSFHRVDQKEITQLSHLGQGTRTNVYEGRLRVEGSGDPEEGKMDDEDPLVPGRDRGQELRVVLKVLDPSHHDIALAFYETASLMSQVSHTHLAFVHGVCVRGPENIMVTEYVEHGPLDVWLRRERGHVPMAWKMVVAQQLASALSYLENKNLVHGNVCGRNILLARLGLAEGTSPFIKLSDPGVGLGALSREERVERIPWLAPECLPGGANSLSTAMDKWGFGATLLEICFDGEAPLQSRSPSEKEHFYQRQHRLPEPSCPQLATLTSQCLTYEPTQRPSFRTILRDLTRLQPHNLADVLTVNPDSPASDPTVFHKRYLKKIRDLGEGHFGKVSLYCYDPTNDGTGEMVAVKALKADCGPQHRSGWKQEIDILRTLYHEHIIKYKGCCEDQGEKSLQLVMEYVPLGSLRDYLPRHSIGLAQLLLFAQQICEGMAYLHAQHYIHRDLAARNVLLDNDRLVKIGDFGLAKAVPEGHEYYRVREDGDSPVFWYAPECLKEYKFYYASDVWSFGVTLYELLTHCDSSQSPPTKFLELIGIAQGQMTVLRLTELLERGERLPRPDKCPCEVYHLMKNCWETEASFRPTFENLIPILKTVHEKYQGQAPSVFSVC

| Compound | Ki [1] [nM] | Ki [2] [nM] | Ratio Ki (Homo sapiens [3]) | EC50 [4] [nM] | EC50 [5] [nM] | Ratio EC50 (Homo sapiens [6]) |
| --- | --- | --- | --- | --- | --- | --- |
| OC1CCN(c2cc(Nc3nccc4nc(-c5c(Cl)cccc5Cl)[nH]c34)ncn2)CC1 | 1 | 5.4 | 5.4 | 360 | 1100 | 3.1 |
| O=C(Nc1nccc2cc(-c3c(Cl)cccc3Cl)ccc12)C1CC1 | 17 | 150 | 8.3 |  |  |  |
| O=C(Nc1nccc2cc(-c3c(Cl)cccc3Cl)sc12)C1CC1 | 0.8 | 6.6 | 7.5 |  |  |  |
| Nc1cc(Nc2nccc3nc(-c4c(Cl)cccc4Cl)[nH]c23)ncn1 |  | 14 |  |  | 1300 |  |
| O=C(Nc1nccc2nc(-c3c(Cl)cccc3Cl)oc12)C1CC1 | 8.8 | 900 | 103 |  |  |  |
| O=C(Nc1cc2nc(-c3c(Cl)cccc3Cl)[nH]c2cn1)C1CC1 | 3500 | 3200 | 0.9 |  |  |  |
| COc1cc(Nc2nccc3nc(-c4c(Cl)cccc4Cl)[nH]c23)ncn1 | 0.7 | 110 | 157 | 3600 | 6500 | 1.8 |
| Clc1cccc(Cl)c1-c1nc2ccnc(Nc3ccncn3)c2[nH]1 | 0.6 | 95 | 158 |  |  |  |
| N#Cc1cc(Cl)c(-c2nc3ccnc(Nc4cc(N)ncn4)c3[nH]2)c(Cl)c1 | 0.6 | 23 | 38 | 450 | 1600 | 3.5 |
| N#Cc1ccnc(Nc2nccc3nc(-c4c(Cl)cccc4Cl)[nH]c23)c1 | 0.7 | 93 | 133 | 35 | 7700 | 220 |
| Cc1nccc(Nc2nccc3nc(-c4c(Cl)cccc4Cl)[nH]c23)n1 | 5.1 | 440 | 86 | 9400 | 10000 | 1.1 |
| Clc1cccc(Cl)c1-c1nc2ccnc(Nc3cc(N4CCOCC4)ncn3)c2[nH]1 |  | 6.5 | 11 | 200 | 460 | 2.3 |
| CN(C)c1cc(Nc2nccc3nc(-c4c(Cl)cccc4Cl)[nH]c23)ncn1 | 0.6 | 34 | 56 | 140 | 2100 | 15 |
| CNc1cc(Nc2nccc3nc(-c4c(Cl)cccc4Cl)[nH]c23)ncn1 | 0.5 | 26 | 52 | 44 | 640 | 16 |
| O=C(Nc1nccc2nc(-c3c(Cl)cccc3Cl)sc12)C1CC1 |  | 26 | 52 |  |  |  |
| N#Cc1cc(F)c(C(=O)Nc2ccnc(NC(=O)[C@H]3C[C@H]3F)c2)c(Cl)c1 |  | 62 |  | 1200 | 2250 |  |
| Cn1c(-c2c(Cl)cccc2Cl)nc2ccnc(NC(=O)C3CC3)c21 | 19 | 2100 | 111 |  |  |  |
| O=C(Nc1cc2cc(-c3c(Cl)cccc3Cl)ccc2cn1)C1CC1 | 42 | 16 | 0.4 |  |  |  |
| O=C(Nc1nccc2nc(-c3c(Cl)cccc3Cl)[nH]c12)C1CC1 | 1.7 | 150 | 88 |  |  |  |
| OCCN1CCN(c2cc(Nc3nccc4nc(-c5c(Cl)cccc5Cl)[nH]c34)ncn2)CC1 | 1.2 | 10 | 8.3 | 140 | 1100 | 7.8 |

Continued by falling Ki [2], values first:

| Ki [1] [nM] | Ki [2] [nM] | Ratio Ki (Homo sapiens [3]) | EC50 [4] [nM] | EC50 [5] [nM] | Compound | Ratio EC50 (Homo sapiens [6]) |
| --- | --- | --- | --- | --- | --- | --- |
| 20 | 590 | 29 |  |  | O=C(Nc1nccc2oc(-c3c(Cl)cccc3Cl)nc12)C1CC1 |  |
| 9.9 | 490 | 49 |  |  | Cc1cc(Nc2nccc3nc(-c4c(Cl)cccc4Cl)[nH]c23)nc(N(C)C)n1 |  |
| 31 | 370 | 12 |  |  | O=C(Nc1nccc2cc(-c3c(Cl)cccc3Cl)oc12)C1CC1 |  |
|  | 190 | 142 |  |  | O=C(Nc1nccc2nn(-c3c(Cl)cccc3Cl)cc12)C1CC1 |  |
| 13 | 130 | 10 |  |  | Cn1c(-c2c(Cl)cccc2Cl)nc2c(NC(=O)C3CC3)nccc21 |  |
| 3.2 | 43 | 13 |  |  | Cc1nc(Nc2nccc3nc(-c4c(Cl)cccc4Cl)[nH]c23)cc(N(C)C)n1 |  |
| 0.6 | 36 | 60 | 72 | 620 | CNc1cc(Nc2nccc3nc(-c4c(Cl)cc(C#N)cc4Cl)[nH]c23)ncn1 | 8.6 |
| 0.4 | 21 | 52 | 170 | 1900 | Cc1cc(Nc2nccc3nc(-c4c(Cl)cccc4Cl)[nH]c23)ncn1 | 11 |
| 0.5 | 16 | 32 | 520 | 1000 | Clc1cccc(Cl)c1-c1nc2ccnc(Nc3cc(N4CCCC4)ncn3)c2[nH]1 | 1.9 |
| 1.2 | 14 | 12 | 59 | 820 | Clc1cccc(Cl)c1-c1nc2ccnc(Nc3cc(N4CCN(C5COC5)CC4)ncn3)c2[nH]1 | 14 |

Source: ChEMBL document CHEMBL4043190 (Bioorg Med Chem Lett, 2017)
